Experimental data: the CheMixHub viscosity set

Experiment: xn = mol fraction of the nth substance listed

CN(C)C=O + CCCO
viscosity [mPa·s], 101 kPa
Conditions | 293.15 K | 298.15 K | 303.15 K | 308.15 K | 313.15 K | 318.15 K | 323.15 K
x1 = 0.4512 | – | 1.232 | – | – | – | – | –
x1 = 0.5 | – | – | 0.893 | – | 0.764 | – | 0.655
x2 = 0.1001 | – | – | 0.7821 | 0.7366 | 0.6955 | 0.6569 | 0.6217
x2 = 0.1007 | 0.9529 | – | 0.8538 | – | 0.7741 | – | 0.7068
x2 = 0.2001 | – | – | 0.8111 | 0.7618 | 0.7167 | 0.6752 | 0.638
x2 = 0.2026 | 0.9902 | – | 0.8826 | – | 0.7929 | – | 0.7215
x2 = 0.2518 | 1.01 | – | 0.8911 | – | 0.7973 | – | 0.7241
x2 = 0.3 | – | – | 0.8451 | 0.7912 | 0.742 | 0.698 | 0.657
x2 = 0.3548 | 1.03 | – | 0.9064 | – | 0.8052 | – | 0.7257
x2 = 0.3967 | – | – | 0.8868 | 0.8273 | 0.7741 | 0.7256 | 0.6801
x2 = 0.5002 | – | – | 0.9267 | 0.8623 | 0.8042 | 0.7517 | 0.7022
x2 = 0.5007 | 1.109 | – | 0.9588 | – | 0.84 | – | 0.7422
x2 = 0.5008 | 1.127 | – | 0.977 | – | 0.8569 | – | 0.7593
x2 = 0.5981 | – | – | – | – | 0.8728 | – | –
x2 = 0.5982 | 1.175 | – | 1.01 | – | – | – | 0.7643
x2 = 0.6 | – | – | 0.9903 | 0.9169 | 0.8505 | 0.7912 | 0.7367
x2 = 0.6981 | 1.315 | – | 1.112 | – | 0.9521 | – | 0.8239
x2 = 0.7001 | – | – | 1.076 | 0.9904 | 0.9148 | 0.8466 | 0.784
x2 = 0.75 | 1.368 | – | 1.146 | – | 0.9688 | – | 0.8261
x2 = 0.7989 | 1.476 | – | 1.231 | – | 1.037 | – | 0.8829
x2 = 0.8001 | – | – | 1.204 | 1.1 | 1.008 | 0.9264 | 0.8521
x2 = 0.8981 | 1.734 | – | 1.412 | – | 1.164 | – | 0.9688
x2 = 0.9001 | – | – | 1.403 | 1.272 | 1.153 | 1.074 | 0.955

c1ccccc1 + CCO
Conditions | viscosity [mPa·s]
293.15 K, 101 kPa, x1 = 0.16 | 1.017
293.15 K, 101 kPa, x1 = 0.37 | 0.81
293.15 K, 101 kPa, x1 = 0.64 | 0.657
298.15 K, 101 kPa, x1 = 0.1259 | 0.916
298.15 K, 101 kPa, x1 = 0.16 | 0.926
298.15 K, 101 kPa, x1 = 0.2547 | 0.805
298.15 K, 101 kPa, x1 = 0.37 | 0.759
298.15 K, 101 kPa, x1 = 0.4079 | 0.708
298.15 K, 101 kPa, x1 = 0.554 | 0.643
298.15 K, 101 kPa, x1 = 0.64 | 0.624
298.15 K, 101 kPa, x1 = 0.676 | 0.611
298.15 K, 101 kPa, x1 = 0.779 | 0.583
298.15 K, 101 kPa, x1 = 0.842 | 0.584
298.15 K, 101 kPa, x1 = 0.91 | 0.587
298.15 K, 101.33 kPa, x1 = 0.0518 | 1.013
298.15 K, 101.33 kPa, x1 = 0.1059 | 0.959
298.15 K, 101.33 kPa, x1 = 0.1078 | 0.955
298.15 K, 101.33 kPa, x1 = 0.1897 | 0.88
298.15 K, 101.33 kPa, x1 = 0.1934 | 0.884
298.15 K, 101.33 kPa, x1 = 0.2966 | 0.794
298.15 K, 101.33 kPa, x1 = 0.3308 | 0.776
298.15 K, 101.33 kPa, x1 = 0.3795 | 0.728
298.15 K, 101.33 kPa, x1 = 0.3983 | 0.731
298.15 K, 101.33 kPa, x1 = 0.4887 | 0.681
298.15 K, 101.33 kPa, x1 = 0.5514 | 0.651
298.15 K, 101.33 kPa, x1 = 0.5729 | 0.647
298.15 K, 101.33 kPa, x1 = 0.5993 | 0.638
298.15 K, 101.33 kPa, x1 = 0.6579 | 0.607
298.15 K, 101.33 kPa, x1 = 0.6973 | 0.61
298.15 K, 101.33 kPa, x1 = 0.7073 | 0.588
298.15 K, 101.33 kPa, x1 = 0.7987 | 0.59
298.15 K, 101.33 kPa, x1 = 0.8126 | 0.567
298.15 K, 101.33 kPa, x1 = 0.8995 | 0.582
298.15 K, 101.33 kPa, x2 = 0.0192 | 0.567
298.15 K, 101.33 kPa, x2 = 0.113 | 0.645
298.15 K, 101.33 kPa, x2 = 0.2 | 0.597
298.15 K, 101.33 kPa, x2 = 0.306 | 0.642
298.15 K, 101.33 kPa, x2 = 0.5 | 0.712
298.15 K, 101.33 kPa, x2 = 0.692 | 0.816
298.15 K, 101.33 kPa, x2 = 0.892 | 0.977
298.16 K, 101 kPa, x2 = 0.1 | 0.583
298.16 K, 101 kPa, x2 = 0.2 | 0.587
298.16 K, 101 kPa, x2 = 0.3 | 0.605
298.16 K, 101 kPa, x2 = 0.4 | 0.635
298.16 K, 101 kPa, x2 = 0.5 | 0.675
298.16 K, 101 kPa, x2 = 0.6 | 0.723
298.16 K, 101 kPa, x2 = 0.7 | 0.782
298.16 K, 101 kPa, x2 = 0.8 | 0.861
298.16 K, 101 kPa, x2 = 0.9 | 0.959
303 K, 100 kPa, x2 = 0.4 | 0.596
303.15 K, 101 kPa, x1 = 0.1259 | 0.841
303.15 K, 101 kPa, x1 = 0.16 | 0.839
303.15 K, 101 kPa, x1 = 0.2547 | 0.737
303.15 K, 101 kPa, x1 = 0.37 | 0.681
303.15 K, 101 kPa, x1 = 0.4079 | 0.65
303.15 K, 101 kPa, x1 = 0.554 | 0.593
303.15 K, 101 kPa, x1 = 0.64 | 0.571
303.15 K, 101 kPa, x1 = 0.676 | 0.564
303.15 K, 101 kPa, x1 = 0.779 | 0.544
303.15 K, 101 kPa, x1 = 0.842 | 0.546
303.15 K, 101 kPa, x1 = 0.91 | 0.547
308 K, 100 kPa, x2 = 0.4 | 0.551
308.15 K, 101 kPa, x1 = 0.1259 | 0.769
308.15 K, 101 kPa, x1 = 0.16 | 0.772
308.15 K, 101 kPa, x1 = 0.2547 | 0.675
308.15 K, 101 kPa, x1 = 0.37 | 0.623
308.15 K, 101 kPa, x1 = 0.4079 | 0.598
308.15 K, 101 kPa, x1 = 0.554 | 0.548
308.15 K, 101 kPa, x1 = 0.64 | 0.538
308.15 K, 101 kPa, x1 = 0.676 | 0.526
308.15 K, 101 kPa, x1 = 0.779 | 0.511
308.15 K, 101 kPa, x1 = 0.842 | 0.511
308.15 K, 101 kPa, x1 = 0.91 | 0.51
313 K, 100 kPa, x2 = 0.4 | 0.528
313.15 K, 101 kPa, x1 = 0.1259 | 0.705
313.15 K, 101 kPa, x1 = 0.16 | 0.699
313.15 K, 101 kPa, x1 = 0.2547 | 0.622
313.15 K, 101 kPa, x1 = 0.37 | 0.567
313.15 K, 101 kPa, x1 = 0.4079 | 0.553
313.15 K, 101 kPa, x1 = 0.5 | 0.5326
313.15 K, 101 kPa, x1 = 0.554 | 0.51
313.15 K, 101 kPa, x1 = 0.64 | 0.5
313.15 K, 101 kPa, x1 = 0.676 | 0.488
313.15 K, 101 kPa, x1 = 0.7 | 0.4812
313.15 K, 101 kPa, x1 = 0.779 | 0.478
313.15 K, 101 kPa, x1 = 0.842 | 0.481
313.15 K, 101 kPa, x1 = 0.91 | 0.479
313.15 K, 101.33 kPa, x2 = 0.113 | 0.525
313.15 K, 101.33 kPa, x2 = 0.306 | 0.515
313.15 K, 101.33 kPa, x2 = 0.5 | 0.555
313.15 K, 101.33 kPa, x2 = 0.692 | 0.629
313.15 K, 101.33 kPa, x2 = 0.892 | 0.748
318 K, 100 kPa, x2 = 0.4 | 0.477
318.15 K, 101 kPa, x1 = 0.1259 | 0.646
318.15 K, 101 kPa, x1 = 0.2547 | 0.573
318.15 K, 101 kPa, x1 = 0.4079 | 0.514
318.15 K, 101 kPa, x1 = 0.554 | 0.475
318.15 K, 101 kPa, x1 = 0.676 | 0.458
318.15 K, 101 kPa, x1 = 0.779 | 0.447
318.15 K, 101 kPa, x1 = 0.842 | 0.451
318.15 K, 101 kPa, x1 = 0.91 | 0.451
323.15 K, 101.33 kPa, x2 = 0.2 | 0.424
